From article PMC7155171, “Probing the Open Global Health Chemical Diversity Library for Multistage-Active Starting Points for Next-Generation Antimalarials” (ACS Infectious Diseases, 2020)
pIC50: −log10 of the molar value. Like-named read-outs stand apart in the source and are kept apart here.

Legend:
[1] = in vitro; conditions: human
[2] = biological target: recombinant firefly luciferase (Photinus pyralis, UniProt P08659); test: biochemical
[3] = system: HepG2-A16-CD81 hepatocytes; test: HepG2 cytotoxicity screening (CellTiter-Glo); conditions: for pIC50: HepG2-A16-CD81, read-out: HepG2 tox IC50
[4] = system: P. berghei liver stage (PbLuc); test: P. berghei luciferase liver stage (PbLuc) assay in HepG2-A16-CD81 hepatocytes; type: cell-based, Plasmodium berghei; conditions: Plasmodium berghei
[5] = system: P. falciparum asexual blood stage (wild-type and DDD01061024-resistant Dd2-B2 clones); test: Lactate dehydrogenase (LDH) asexual blood stage assay; type: cell-based, Plasmodium falciparum; conditions: for pIC50: Plasmodium falciparum
Description: Mutations within this site, and indeed at our V259L residue, were previously reported using other known cytochrome b inhibitors including ELQ400[49] and RYL-552.[50]
Figure S3. DDD01061024 is a cytochrome bc1 inhibitor.
The dual stage inhibitor, DDD01061024, is shown occupying the Q0 site (residues outlined in orange) of a Pf Cyt Bc1 homology model (from PDB: 1BE3) (a). A local V259L substitution (red) in mutant clones may destabilize the interactions within this pocket, helping resistant clones tolerate higher doses of the inhibitor (b). DDD01061024-resistannt mutants show cross-resistance to atovaquone (c), another multistage active antimalarial which targets the Q0 binding site. Dose dependent inhibition was determined using a metabolic endpoint (LDH) before normalizing to controls (n=2). Measuring the percentage of PbGFP infected hepatocytes using a high content imaging system validates the liver-stage potency of DDD01061024 in a fluorescence-based model (d). Infected hepatocytes were counted using luminescence-independent high content imaging in treated wells and normalized to controls over two replicates.
(1 picture or pasted object on this page, not shown here)

[6] = system: P. falciparum Dd2 (PfLuc) line expressing firefly luciferase, asexual blood stage; test: microbe, parasite or virus in culture; design: species or system P. falciparum Dd2-luciferase in human red blood cells; PfLuc Dd2 asexual blood stage luciferase viability, BrightGlo luminescence, 96 h; conditions: Plasmodium falciparum, DD2, Erythrocyte, read-out: CDD P. falciparum Luc 11pt dose response (96hr, n=2): IC50 (μM), 11-point
Method: (§1) A transgenic line of Plasmodium falciparum (Dd2) constitutively expressing firefly luciferase was used for primary and reconfirmation screening. Cultures were maintained in complete media at 5% hematocrit (Human Whole Blood O+) and incubated at 37 °C in a low oxygen environment (3% O2, 5% CO2, and 92% N2). Culture health and parasitemia were tracked by Giemsa staining and bright field microscopy. Prior to dispensing parasites for primary screening, 20 nL of test compounds and 10 nL of control compounds (artemisinin and DMSO) were seeded per well using an Echo 550 acoustic dispenser (Labcyte) for final assay concentrations of 5 and 10 μM, respectively. When parasite cultures reached 3% to 8% parasitemia, as determined by a blood smear, infected blood was centrifuged at 800g for 5 min. […] From this blood mixture, 8 μL was dispensed per well in 1536-well, white, solid-bottom plates (789173-F, Greiner) using a MultiFlo FX Multi-Mode dispenser (BioTek). Plates were covered with a porous metal lid and incubated at 37 °C inside large plastic Ziploc bags filled with a blood gas mixture (3% O2, 5% CO2, and 92% N2) for 96 h. To prevent evaporation, a clean tray of water was included within each bag. Following incubation, BrightGlo was prepared by manufacturer specifications and dispensed at 2 μL per well using the MultiFlo dispenser. Plates were left for 20 min before being read with the ViewLux uHTS microplate imager (PerkinElmer) with a 90 s exposure time at the High Sensitivity Luminescence setting. Raw data were processed using GeneData (v12.0.5), whereby activity was normalized to negative minus positive controls. The correction of Runwise Pattern (Multiplicative) was applied, and compounds were considered hits when activity was reduced by ≥70%. […] Also, plates tested in 11-point dose response format were incubated at both 48 a The primary assay was run at a compound concentration of 5 μM. Briefly, 8 μL of an ABS parasite mixture (∼10,000 parasites) was dispensed into 1536-well plates previously spotted with 64,811 GHCDL compounds (the remaining 3642 library compounds arrived later and were evaluated separately). After a 96 h incubation, 2 μL of luciferin (BrightGlo) was added, and the luminescent signal was measured. Bioluminescence was normalized to DMSO (negative control) and artemisinin-treated (positive control) wells for the single point screens. For this primary screen, assay fidelity was determined on a per plate basis using both the Z′-factor and the potency variance of the positive (artemisinin) and negative (DMSO) controls. The mean Z′ value was 0.60 (range of 0.43–0.75), with only one plate falling below our ideal 0.5 threshold (Figure S1).

[7] = system: P. falciparum Dd2; test: microbe, parasite or virus in culture; design: species or system P. falciparum Dd2 in human red blood cells; SYBR Green I asexual blood stage proliferation (DNA) assay, P. falciparum Dd2, 96 h; conditions: Plasmodium falciparum, DD2, Erythrocyte, 96 h, read-out: CDD P. falciparum Sybr Green I ABS Dd2 Dose Response: IC50 (uM)
[8] = system: P. falciparum Dd2 (PfLuc) line expressing firefly luciferase, asexual blood stage; test: microbe, parasite or virus in culture; design: species or system P. falciparum Dd2-luciferase in human red blood cells; PfLuc Dd2 asexual blood stage luciferase viability, BrightGlo luminescence, 48 h; conditions: Plasmodium falciparum, DD2, Erythrocyte, read-out: CDD P. falciparum Luciferase 11pt dose response (48hr, n=2): IC50 (μM), 11-point
Method: as §1, with “From these (Sets 1 and 2),” for “The primary assay was run at a compound concentration of 5 μM. Briefly, 8 μL of an ABS parasite mixture (∼10,000 parasites) was dispensed into 1536-well plates previously spotted with 64,811 GHCDL”, “were resupplied as fresh powders” for “(the remaining 3642 library compounds arrived later”, “and” for “and were”, “in 11-point dose response tests (Pfluc; n = 2)” for “separately). After a 96 h incubation, 2 μL of luciferin (BrightGlo) was added, and the luminescent signal was measured. Bioluminescence was normalized to DMSO (negative control) and artemisinin-treated (positive control) wells”, “two time points.” for “single point screens. For this primary screen, assay fidelity was determined on a per plate basis using both the Z′-factor and the potency variance of the positive (artemisinin) and negative (DMSO) controls. The mean Z′ value was 0.60 (range of 0.43–0.75), with only one plate falling below our ideal 0.5 threshold (Figure S1).”

[9] = system: HepG2-A16-CD81 hepatocytes; test: cells; design: Uninfected hepatocyte viability, CellTiter-Glo luminescence; conditions: sheet CDD Export 1;, cytotoxicity primary screen, read-out: Table S5. Liver stage reconfirmation data / HepG2 Cytotoxicity primary screen (2uM): % Inhibition
Method: For the screen, 5 μL of HepG2-A16-CD81 hepatocytes containing 3 × 10^3 cells was seeded into 1536-well plates, which had been prespotted with 10 nL of library compound (2 μM final assay concentration (Figure 1)) and incubated overnight. For PbLuc infected plates, approximately 750 purified sporozoites in 5 μL of screening media were added to each well and incubated for 48 h before measuring luciferase activity. Compounds were tested for toxicity in parallel (see Methods) by measuring uninfected hepatocyte viability using CellTiter-Glo. […] This hit rate was slightly lower than expected for an agnostic library, which prompted us to rescreen the entire library at 10 μM. The PbLuc and cytotoxicity assay plates for this second replicate would be stamped in-house with 50 nL of library compound per well, using the same compound plates as the sexual stage screen described below. All the assay parameters were kept similar, except the change in concentration and shortening the time the compounds spent in each well prior to infection. […] All potential false positive effectors from the CellTiter-Glo assay were filtered from subsequent studies (Table S1). Naturally, there were more primary hits from the 10 μM than the 2 μM screen due to the higher testing concentration. For reconfirmation, we sourced all the hits that inhibited PbLuc at >70% and mean HepG2 at <50% in the 2 μM screen or PbLuc at >60% in both 2 and 10 μM screens and mean HepG2 at <50%. The resulting compounds were acquired as DMSO stocks and retested in the dose response (50–2.82 × 10^–4 μM or 25–141.13 × 10^–6 μM) against PbLuc and uninfected hepatocytes (Table S5). […] The majority of these compounds were weak inhibitors, although 18 submicromolar hits were found (Table S5).

[10] = system: P. falciparum (NF54) stage V gametocytes; test: Stage V gametocyte viability assay (MitoTracker Red CMXRos high content imaging); type: cell-based, Plasmodium falciparum; conditions: Plasmodium falciparum, NF54, 72 h
[11] = system: P. vivax patient isolates, exoerythrocytic forms (schizonts and hypnozoites); test: P. vivax liver stage assay in HC04 cells (immunofluorescence); conditions: HC04 cells treated 24 h before sporozoites, nanomolar concentrations, counted day 7
[12] = HepG2-A16-CD81, 48 h, 48 h liver stage, HepG2-A16-CD81, read-out: Pbluc (EEF) IC50

Sequence of recombinant firefly luciferase (P08659 whole entry): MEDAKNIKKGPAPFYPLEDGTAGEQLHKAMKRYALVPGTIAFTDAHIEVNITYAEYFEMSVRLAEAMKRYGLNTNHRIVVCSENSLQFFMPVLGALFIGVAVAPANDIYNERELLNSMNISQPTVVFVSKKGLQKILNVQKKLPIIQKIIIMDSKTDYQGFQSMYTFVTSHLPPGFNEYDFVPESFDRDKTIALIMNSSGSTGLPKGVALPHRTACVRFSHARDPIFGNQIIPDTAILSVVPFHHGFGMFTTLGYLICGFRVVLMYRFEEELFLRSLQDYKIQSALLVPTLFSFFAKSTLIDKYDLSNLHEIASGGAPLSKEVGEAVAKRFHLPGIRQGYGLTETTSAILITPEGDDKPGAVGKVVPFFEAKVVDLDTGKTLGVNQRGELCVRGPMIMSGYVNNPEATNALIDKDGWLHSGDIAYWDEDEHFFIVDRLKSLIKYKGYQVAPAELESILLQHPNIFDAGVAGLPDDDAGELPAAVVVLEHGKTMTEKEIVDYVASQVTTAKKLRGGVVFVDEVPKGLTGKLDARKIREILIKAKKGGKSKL

Row | Compound | inhibition at 2 µM [1] [%] | IC50 [6] [µM] | IC50 [7] [µM] | IC50 [8] [µM] | pIC50 ([2]; read-out: rLuc IC50) | pIC50 [3] | pIC50 [4, 12] | also measured
1 | O=C1NCCN1C1CCCN(Cc2coc(-c3ccc(F)cc3)n2)C1 (centres unmarked) [UCSD-0845351] | 0.09 | – | – | – | – | – | – | –
2 | CCS(=O)(=O)N1[CH]Cc2ccc(NC(=O)Nc3cccc(C#N)c3)cc21 [UCSD-0785775] | -2.63 | – | – | – | – | – | – | pIC50 [1]: < 4.60; inhibition at 10 µM [1]: 39.2%; Emax ([2]; dose response, maximum inhibition, read-out: rLuc inhibition dose response: Maximum inhibition (%)): 6.44%; pIC50 ([2]; dose response, read-out: rLuc inhibition dose response: IC50): < 4.60; HepG2 cytotoxicity 12pt dose response: Maximum inhibition (%) ([3]; 12pt dose response, maximum inhibition): 52.4%; Emax ([4]; HepG2-A16-CD81, 48 h, 12pt dose response, maximum inhibition): 91.5%; inhibition at 2 µM ([4]; HepG2-A16-CD81, primary screen, 2 uM): -22.1%; inhibition at 10 µM ([4]; HepG2-A16-CD81, primary screen, 10 uM): 86.7%; pIC50 ([4]; HepG2-A16-CD81, read-out: PbLuc 12pt dose response: IC50): 5.87
3 | O=C1C(O)=C([C@H]2CC[C@H](c3ccc(Cl)cc3)CC2)C(=O)c2ccccc21 [atovaquone] | – | – | – | – | – | – | – | fold increase of IC50, DDD01061024 mutants vs wild-type [5]: 11 fold; pIC50 ([5]; DD2, read-out: IC50 against wild-type parasites): 9.42; pIC50 ([5]; DD2, read-out: IC50 in DDD01061024 mutants): 8.38
4 | c1ccc(-c2ccc(C3CNCCO3)nc2)cc1 (centres unmarked) [DDD01270216] | – | 1.44 | > 12.5 | 1.77 | 6.66 | < 4.60 | > 9.85 | inhibition at 2 µM [9]: 6.27%
5 | CC(C)C[C@H](N)C(=O)N1CC2(CCNCC2)c2cc(Cl)ccc21 [DDD01029528, CC(C)C[C@H](N)C(=O)N1CC2(CCNCC2)C2=CC(Cl)=CC=C12] | – | 0.553 | 1.52 | 1.79 | – | – | – | IC50 ([10]; read-out: Stg V Gam dose response IC50 (µM) (n=3), 10-point dose response, n=3, 72 h): 3.02 µM; inhibition at 2 µM ([10]; read-out: Stg V Gam primary screen: Inhibition % (2uM) (n=2)): 49.8%
6 | O=C1[C@@H]2CC[C@@H](CN(c3ncnc4ccsc34)C2)N1CC1CC1 [UCSD-0827296] | -8.03 | – | – | – | – | – | – | –
7 | CCc1c(C)nc(-n2nc(C3CC3)cc2NC(C)=O)[nH]c1=O [DDD01027733] | – | – | – | – | < 4.30 | < 4.60 | 7.02 | P. vivax hypnozoites or schizonts after treatment [11]: no detectable hypnozoites or schizonts
8 | Cc1cc(NC(=O)C(C)C)n(-c2nc(C)c(C)c(=O)[nH]2)n1 [DDD01027481] | – | – | – | – | < 4.30 | < 4.60 | 6.86 | P. vivax hypnozoites or schizonts after treatment [11]: no detectable hypnozoites or schizonts
9 | Cc1ccc(-c2ccccc2CC2(C(=O)NC(C)C)CCCNC2)cc1 (centres unmarked) [DDD01056815] | – | 0.863 | > 4.16 | > 4.16 | – | – | – | –
